# Experimental data taken from patent US12492196B2, “Thienyloxazolones and analogues” (Bayer Aktiengesellschaft, priority 2019, dated 2025).
# Read-outs that look alike come from different tables or passages of the source.
# What was measured:
# [1] = Log P by HPLC on reversed phase columns (EEC directive 79/831 Annex V.A8); assay type: physicochemical; settings: for chromatographic logP: reversed phase HPLC columns
# Description: In the above table, measurement of Log P values was performed according to EEC directive 79/831 Annex V.A8 by HPLC (High Performance Liquid Chromatography) on reversed phase columns with the following methods: • [^a] Log P value is determined by measurement of LC-UV, in an acidic range, with 0.1% formic acid in water and acetonitrile as eluent (linear gradient from 10% acetonitrile to 95% acetonitrile). • [^b] Log P value is determined by measurement of LC-UV, in a neutral range, with 0.001 molar ammonium acetate solution in water and acetonitrile as eluent (linear gradient from 10% acetonitrile to 95% acetonitrile). • [^c] Log P value is determined by measurement of LC-UV, in an acidic range, with 0.1% phosphoric acid and acetonitrile as eluent (linear gradient from 10% acetonitrile to 95% acetonitrile).
# If more than one Log P value is available within the same method, all the values are given and separated by “+”.
# Calibration was done with straight-chain alkan2-ones (with 3 to 16 carbon atoms) with known Log P values (measurement of Log P values using retention times with linear interpolation between successive alkanones). Lambda-max-values were determined using UV-spectra from 200 nm to 400 nm and the peak values of the chromatographic signals.
# [2] = test system: Xanthomonas campestris pv. campestris; assay: In vivo preventive test on Xanthomonas campestris pv. campestris (black rot on cabbage); settings: Xanthomonas campestris, cabbage, evaluated 8 or 10 days after inoculation, read-out: efficacy; for pest or weed control at 31 ppm: 31 ppm of active ingredient; for pest or weed control at 125 ppm: 125 ppm of active ingredient
# Description: (§1) The tested active ingredients were prepared by homogenization in a mixture of acetone/Dimethyl sulfoxide/Tween®, and then diluted with water to obtain the desired active material concentration.
# (§2) The young plants of cabbage were treated by spraying the active ingredient prepared as described above. Control plants were treated only with an aqueous solution of acetone/Dimethyl sulfoxide/Tween®.
# After 72 hours, the plants were contaminated by spraying the leaves with an aqueous bacteria suspension of Xanthomonas campestris pv. campestris. The contaminated cabbage plants were incubated for 8 or 10 days at 27° C. at 95% relative humidity.
# The test was evaluated 8 or 10 days after the inoculation. 0% means an efficacy which corresponds to that of the control plants while an efficacy of 100% means that no disease was observed.
# Compound CMP1 was tested in an in vivo preventive test on Xanthomonas campestris pv. campestris (black rot on cabbage) in the same conditions as described in Example F.
# [3] = test system: salicylate responsive promoter sequence of the PR1 (pathogenesis-related protein I) gene (AT2G14610); assay: Induction of defense gene expression in Arabidopsis thaliana (PR1 promoter-GFP reporter plants); assay type: in vivo; settings: 72 h, 3rd day after spraying, mock treated leaves set as 1.00, read-out: relative fluorescence value; for fold induction at 75 ppm: 75 ppm of compound
# Description: Arabidopsis thaliana reporter plants containing the coding sequence of a green fluorescent protein (GFP) linked to the salicylate responsive promoter sequence of the PR1 (pathogenesis-related protein I) gene (AT2G14610) were grown for five days and then sprayed with compounds. On the 3rd day after spraying, plant fluorescence was assessed with a MacroFluo instrument from Leica Microsystems (Wetzlar, Germany). Fluorescences were quantified with the Meta-Morph Microscopy Automation & Image Analysis Software (Molecular Devices, Sunnyvale, Calif., United States).
# Background fluorescence in mock treated leaves was set as 1.00.
# Peronospora parasitica = assay: In vivo preventive test on Peronospora parasitica (crucifer downy mildew); settings: Hyaloperonospora parasitica, 120 h; 125 ppm of active ingredient; cabbage; evaluated 5 days after inoculation; read-out: efficacy
# Description: as §1, §2
# After 72 hours, the plants were contaminated by spraying the leaves with an aqueous suspension of Peronospora parasitica spores. The contaminated cabbage plants were incubated for 5 days at 20° C. and at 100% relative humidity.
# The test was evaluated 5 days after the inoculation. 0% means an efficacy which corresponds to that of the control plants while an efficacy of 100% means that no disease was observed.
# [4] = test system: Xanthomonas campestris pv. campestris; assay: Xanthomonas campestris pv. campestris in vitro cell test; assay type: cell-based; settings: 20 ppm of active ingredient, 24 h incubation, read-out: efficacy (direct activity, inhibition of bacteria growth)
# Description: Solvent: DMSO Culture medium: LB broth medium (Luria Broth Miller) Sigma Inoculum: bacteria suspension Compounds were solubilized in DMSO and the solution used to prepare the required range of concentrations. The final concentration of DMSO used in the assay was ≤1%. Inoculum was prepared from a pre-culture of bacteria grown in liquid medium and diluted to the desired optical density (OD). Compounds were evaluated for their ability to inhibit bacteria growth in liquid culture assay. The compounds were added in the desired concentrations to culture medium containing the bacteria suspension. After 24 h of incubation, the efficacy of compounds was determined by spectrometric measurement of bacteria growth. Inhibition was determined by comparing the absorbance values in wells containing the compounds with the absorbance in control wells without active ingredients.
# Uromyces appendiculatus = assay: In vivo preventive test on Uromyces appendiculatus (bean rust); settings: Uromyces appendiculatus, 240 h, bean, evaluated 10 days after inoculation, read-out: efficacy; for pest or weed control at 500 ppm: 500 ppm of active ingredient; for pest or weed control at 125 ppm: 125 ppm of active ingredient; for pest or weed control at 31 ppm: 31 ppm of active ingredient
# Description: as §1
# The young plants of bean were treated by spraying the active ingredient prepared as described above.
# Control plants were treated only with an aqueous solution of acetone/Dimethyl sulfoxide/Tween®.
# After 72 hours, the plants were contaminated by spraying the leaves with an aqueous suspension of Uromyces appendiculatus spores. The contaminated bean plants were incubated for 24 hours at 20° C. and at 100% relative humidity and then for 9 days at 20° C. and at 70-80% relative humidity.
# The test was evaluated 10 days after the inoculation. 0% means an efficacy which corresponds to that of the control plants while an efficacy of 100% means that no disease was observed.
# Compound CMP1 was tested in an in vivo preventive test on Uromyces appendiculatus (bean rust) in the same conditions as described in Example G.
# [5] = test system: Colletotrichum lindemuthianum; assay: Colletotrichum lindemuthianum in vitro cell test; assay type: cell-based; settings: 144 h, 20 ppm of active ingredient, 6 days incubation, read-out: efficacy (direct activity, inhibition of fungal growth)
# Description: Solvent: DMSO Culture medium: 14.6 g anhydrous D-glucose (VWR), 7.1 g Mycological Peptone (Oxoid), 1.4 g granulated Yeast Extract (Merck), QSP 1 liter Inoculum: spores suspension Fungicides were solubilized in DMSO and the solution used to prepare the required range of concentrations. The final concentration of DMSO used in the assay was ≤1%. A spore suspension of C. lindemuthianum was prepared and diluted to the desired spore density. Fungicides were evaluated for their ability to inhibit spores germination and mycelium growth in liquid culture assay. The compounds were added in the desired concentration to the culture medium with spores. After 6 days incubation, fungi-toxicity of compounds was determined by spectrometric measurement of mycelium growth. Inhibition of fungal growth was determined by comparing the absorbance values in wells containing the fungicides with the absorbance in control wells without fungicides.
# [6] = given in preparation examples, method not marked
# [7] = method [a]: LC-UV, acidic range, 0.1% formic acid in water and acetonitrile as eluent
compound,measurement,setting,value
COC(=O)C1(NC(=O)c2sc(C#N)c(Br)c2C)CC1 [methyl 1-{[(4-bromo-5-cyano-3-methyl-2-thienyl)carbonyl]amino}cyclopropanecarboxylate],chromatographic logP,[1]; [6],2.31
O=C1SC(c2sc(Cl)c(Cl)c2Cl)=NC12CC2 [I.01],pest or weed control at 31 ppm,[2],80 to 89%
same,fold induction at 300 ppm,[3],> 2
same,chromatographic logP,[1]; [7],5.61
same,pest or weed control at 125 ppm,Peronospora parasitica,80 to 89%
same,inhibition at 20 ppm,[4],≤ 30%
same,pest or weed control at 500 ppm,Uromyces appendiculatus,90 to 100%
"O=C(O)C1(NC(=S)c2sc(Br)c(Br)c2F)CC1 [1-{[(4,5-dibromo-3-fluoro-2-thienyl)carbonothioyl]amino}cyclopropanecarboxylic acid]",chromatographic logP,[1]; [6],2.95
O=C1OC(c2sc(Br)c(Br)c2Cl)=NC12CCC2 [I.17],inhibition at 20 ppm,[5],≤ 30%
same,fold induction at 75 ppm,[3],> 2
same,fold induction at 300 ppm,[3],> 2
same,chromatographic logP,[1]; [7],4.51
same,pest or weed control at 125 ppm,Peronospora parasitica,90 to 100%
same,inhibition at 20 ppm,[4],≤ 30%
same,pest or weed control at 125 ppm,Uromyces appendiculatus,90 to 100%
Cc1c(C2=NC3(CC3)C(=O)S2)sc(Cl)c1Cl [I.15],LogP,[1],5.53^[a]
CC1(C)N=C(c2sc(Cl)c(Br)c2Cl)OC1=O [I.21],inhibition at 20 ppm,[5],≤ 30%
same,chromatographic logP,[1]; [7],4.26
same,pest or weed control at 125 ppm,Peronospora parasitica,90 to 100%
same,inhibition at 20 ppm,[4],≤ 30%
same,pest or weed control at 31 ppm,Uromyces appendiculatus,90 to 100%
same,pest or weed control at 125 ppm,Uromyces appendiculatus,90 to 100%
Cc1c(C2=NC(C)(C)C(=O)O2)sc(Cl)c1Cl [I.24],inhibition at 20 ppm,[5],≤ 30%
same,chromatographic logP,[1]; [7],4.51
same,pest or weed control at 125 ppm,Peronospora parasitica,80 to 89%
same,inhibition at 20 ppm,[4],≤ 30%
same,pest or weed control at 125 ppm,Uromyces appendiculatus,90 to 100%
"COC(=O)C1(NC(=S)c2sc(Br)c(Br)c2F)CC1 [methyl 1-{[(4,5-dibromo-3-fluoro-2-thienyl)carbonothioyl]amino}cyclopropanecarboxylate]",chromatographic logP,[1]; [6],3.91
"O=C1SC(c2sc(Br)c(Br)c2F)=NC12CC2 [I.03, 5-(4,5-dibromo-3-fluoro-2-thienyl)-6-thia-4-azaspiro[2.4]hept-4-en-7-one]",pest or weed control at 31 ppm,[2],70 to 79%
same,pest or weed control at 125 ppm,[2],70 to 79%
same,inhibition at 20 ppm,[5],≤ 30%
same,fold induction at 300 ppm,[3],> 2
same,chromatographic logP,[1]; [6],5.08
same,chromatographic logP,[1]; [7],5.08
same,inhibition at 20 ppm,[4],≤ 30%
Cc1c(C(=O)NC2(C(=O)O)CC2)sc(C#N)c1Br [1-{[(4-bromo-5-cyano-3-methyl-2-thienyl)carbonyl]amino}cyclopropanecarboxylic acid],Log P,[1]; [6],1.84
same,chromatographic logP,[1]; [6],1.88
Cc1c(C2=NC(C(C)C)C(=O)O2)sc(Br)c1Br (stereo not shown) [I.10],LogP,[1]; [7],5.31^[a]
O=C1SC(c2sc(Br)c(Br)c2I)=NC12CC2 [I.14],LogP,[1]; [7],5.61^[a]
Cc1c(C2=NC3(CC3)C(=O)O2)sc(C#N)c1Cl [I.07],LogP,[1]; [7],3.25^[a]
"O=C(O)c1ccccc1O [Salicylic acid, reference compound]",fold induction at 300 ppm,[3],2.7
Cc1c(C(=O)O)sc(C#N)c1Br [4-bromo-5-cyano-3-methylthiophene-2-carboxylic acid],chromatographic logP,[1]; [6],2.05
CC1(C)N=C(c2sc(Cl)c(Br)c2Br)OC1=O [I.18],LogP,[1]; [7],4.32^[a]
Cc1c(C2=NC3(CC3)C(=O)S2)sc(Br)c1Br [I.02],pest or weed control at 125 ppm,[2],80 to 89%
same,inhibition at 20 ppm,[5],≤ 30%
same,fold induction at 75 ppm,[3],> 2
same,fold induction at 300 ppm,[3],> 2
same,chromatographic logP,[1]; [7],5.65
same,inhibition at 20 ppm,[4],≤ 30%
same,pest or weed control at 500 ppm,Uromyces appendiculatus,70 to 79%
N#Cc1sc(C2=NC3(CC3)C(=O)O2)cc1Br [I.05],LogP,[1]; [7],2.83^[a]
O=C1SC(c2sc(Br)c(Br)c2Br)=NC12CC2 [I.04],LogP,[1]; [7],5.61^[a]
CC1(C)N=C(c2sc(Br)c(Br)c2F)OC1=O [I.16],inhibition at 20 ppm,[5],≤ 30%
same,fold induction at 75 ppm,[3],> 2
same,fold induction at 300 ppm,[3],> 2
same,chromatographic logP,[1]; [7],3.77
same,pest or weed control at 125 ppm,Peronospora parasitica,90 to 100%
same,inhibition at 20 ppm,[4],≤ 30%
same,pest or weed control at 31 ppm,Uromyces appendiculatus,90 to 100%
same,pest or weed control at 125 ppm,Uromyces appendiculatus,90 to 100%
CC1(C)N=C(c2sc(Cl)c(Cl)c2Br)OC1=O [I.23],inhibition at 20 ppm,[5],≤ 30%
same,chromatographic logP,[1]; [7],4.33
same,inhibition at 20 ppm,[4],≤ 30%
same,pest or weed control at 31 ppm,Uromyces appendiculatus,70 to 79%
Cc1c(C2=NC3(CCC3)C(=O)O2)sc(Cl)c1Cl [I.19],inhibition at 20 ppm,[5],≤ 30%
same,chromatographic logP,[1]; [7],4.75
same,pest or weed control at 125 ppm,Peronospora parasitica,90 to 100%
same,inhibition at 20 ppm,[4],≤ 30%
same,pest or weed control at 31 ppm,Uromyces appendiculatus,90 to 100%
same,pest or weed control at 125 ppm,Uromyces appendiculatus,90 to 100%
